From paper PMC4477702 (The Biochemical journal, 2015)

Assays:
[1] = target: T1, Arabidopsis (At) COG3236 domain of RIBR (Arabidopsis thaliana, UniProt Q9STY4); assay: HPLC-UV product formation; type: biochemical; conditions: pH 8.0, 22°C, 1 h
T1 sequence (Q9STY4 405-599 limits assumed): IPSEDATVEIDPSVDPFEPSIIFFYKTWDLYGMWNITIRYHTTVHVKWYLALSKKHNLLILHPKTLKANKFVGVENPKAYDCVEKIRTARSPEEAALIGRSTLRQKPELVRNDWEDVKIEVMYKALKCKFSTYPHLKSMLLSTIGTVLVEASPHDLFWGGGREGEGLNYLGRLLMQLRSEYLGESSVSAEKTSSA

[2] = target: T2, N. punctiforme (Np) COG3236 (Nostoc punctiforme, UniProt B2J4E5); assay: HPLC-UV product formation; type: biochemical; conditions: pH 8.0, 22°C, 1 h
T2 sequence (B2J4E5 1-156): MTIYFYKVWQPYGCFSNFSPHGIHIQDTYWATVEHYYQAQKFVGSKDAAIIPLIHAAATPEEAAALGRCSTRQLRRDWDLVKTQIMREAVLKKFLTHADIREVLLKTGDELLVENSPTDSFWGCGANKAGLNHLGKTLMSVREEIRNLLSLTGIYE

| Compound | HPLC-UV product formation; diacetyl derivatization ([1]; 3 mM substrate, 30 μg protein) | HPLC-UV product formation ([2]; 3 mM substrate, 30 μg protein) | HPLC-UV product formation; diacetyl derivatization ([1]; 2.4 mM substrate, 0.1 μg protein) | HPLC-UV product formation ([2]; 2.4 mM substrate, 1 μg protein) |
| --- | --- | --- | --- | --- |
| Nc1nc(N[C@@H]2O[C@H](COP(=O)(O)O)[C@@H](O)[C@H]2O)c(N)c(=O)[nH]1 (mixture of isomers) [compound 1, 2,5-diamino-6-ribosylamino-4(3H)-pyrimidinone 5′-phosphate] | All five COG3236 proteins gave rise to a new HPLC peak when mixed with intermediate | All five COG3236 proteins gave rise to a new HPLC peak when mixed with intermediate | – | – |
| Nc1c(N[C@@H]2O[C@H](COP(=O)(O)O)[C@@H](O)[C@H]2O)[nH]c(=O)[nH]c1=O (mixture of isomers) [compound 2, 5-amino-6-ribosylamino-2,4(1H,3H)-pyrimidinedione 5′-phosphate] | – | – | All five COG3236 proteins gave rise to a new HPLC peak when mixed with intermediate | All five COG3236 proteins gave rise to a new HPLC peak when mixed with intermediate |
